The record followed here is ChEMBL document CHEMBL5042512 (Eur J Med Chem, 2022).

Common to all, as to type: functional, cell-based
The subject of one assay is MGC-803. The assay can be described thus: Antiproliferative activity against human MGC-803 cells assessed as cell growth inhibition measured after 48 hrs by CCK8 assay. Conditions: MGC-803, 48 h. On the technique in general: Tetrazolium assays rely on reduction of a dye to a coloured formazan, in cell work by metabolically active cells.
Another assay concerns KYSE-450. The assay can be described thus: Antiproliferative activity against human KYSE-450 cells assessed as cell growth inhibition measured after 48 hrs by CCK8 assay. Conditions: KYSE-450, 48 h.
The next assay deals with HCT-116. The assay can be described thus: Antiproliferative activity against human HCT-116 cells assessed as cell growth inhibition measured after 48 hrs by CCK8 assay. The settings on record: HCT-116, 48 h.

Where only a bound is given, the exact number is not on record here.

The term IC50 denotes the concentration that gives 50% inhibition. Regarding `COc1cc2c(c(OC)c1OC)-c1ccc(OC)c(=O)cc1[C@@H](NC(C)=O)CC2` [COLCHICINE], the IC50 is 0.09 µM in the assay with MGC-803 and 0.22 µM in the assay on KYSE-450.

Take `COc1ccc(CN(C(=O)CSC(=S)N2CCOCC2)c2cc(OC)c(OC)c(OC)c2)cc1`: the IC50 turned out to be 2.37 µM in the assay with MGC-803, 7.22 µM in the assay on KYSE-450 and 4.13 µM in the assay with HCT-116.

With `COc1cc(N(Cc2ccc(Cl)cc2)C(=O)CSC(=S)N2CCN(C(=O)OC(C)(C)C)CC2)cc(OC)c1OC`, the figures for the IC50 in the assay with MGC-803, in the assay on KYSE-450 and in the assay with HCT-116 were 12.9 µM, 11.9 µM and 8.49 µM, respectively.

With `COc1ccc(CN(C(=O)CSC(=S)N2CCN(C(=O)OC(C)(C)C)CC2)c2ccc(OC)cc2)cc1`, the IC50 with MGC-803, with KYSE-450 and in the assay on HCT-116 was over 20 µM throughout.

`COc1ccc(CN(C(=O)CSC(=S)N2CCN(C(=O)OC(C)(C)C)CC2)c2ccc(Cl)cc2)cc1`: the IC50 in the assay on MGC-803, in the assay with KYSE-450 and in the assay with HCT-116 was over 20 µM in each case.

Turning to `COc1cc(N(Cc2ccc(C)cc2)C(=O)CSC(=S)N2CCN(C(=O)OC(C)(C)C)CC2)cc(OC)c1OC`, the figures for the IC50 with MGC-803, with KYSE-450 and in the assay on HCT-116 were 16.7 µM, over 20 µM and over 20 µM, respectively.

For the compound `COc1ccc(CN(C(=O)CSC(=S)N2CCCc3cc(C)ccc32)c2cc(OC)c(OC)c(OC)c2)cc1`, the IC50 turned out to be 6.49 µM in the assay with MGC-803, 5.21 µM with KYSE-450 and 5.23 µM in the assay with HCT-116.

Take `COc1ccc(CN(C(=O)CSC(=S)N2CCN(C(=O)OC(C)(C)C)CC2)c2cc(OC)c(OC)c(OC)c2)cc1N=[N+]=[N-]`: the IC50 stood at 0.81 µM with MGC-803, 0.84 µM in the assay with KYSE-450 and 0.78 µM in the assay on HCT-116.

As for `COc1ccc(CN(C(=O)CSc2nc3ccccc3o2)c2cc(OC)c(OC)c(OC)c2)cc1`, the IC50 was 0.84 µM in the assay with KYSE-450 and 3.28 µM with HCT-116.

In the case of `COc1ccc(CN(C(=O)CSC(=S)N2CCN(C(=O)OC(C)(C)C)CC2)c2cc(OC)c(OC)c(OC)c2)cc1C`, the IC50 in the assay on MGC-803, in the assay with KYSE-450 and with HCT-116 was over 20 µM in each case.

In the case of `COc1ccc(CN(C(=O)CSC(=S)N2CCN(C(=O)OC(C)(C)C)CC2)c2cc(OC)c(OC)c(OC)c2)cc1OC`, the IC50 with MGC-803, in the assay with KYSE-450 and in the assay on HCT-116 was over 20 µM throughout.

`COc1ccc(CN(C(=O)CSC(=S)N2CCN(C(=O)OC(C)(C)C)CC2)c2ccccc2)cc1`: the IC50 in the assay on MGC-803, in the assay with KYSE-450 and with HCT-116 was over 20 µM each time.

With `COc1ccc(CN(C(=O)CSC(=S)N2CCN(C(=O)OC(C)(C)C)CC2)c2cc(OC)c(OC)c(OC)c2)cc1[N+](=O)[O-]`, the 50% inhibitory concentration (IC50) in the assay with MGC-803 was 0.88 µM; in the assay on KYSE-450, 0.81 µM; in the assay with HCT-116, 0.98 µM.

For `COc1ccc(CN(C(=O)CSC(=S)N2CCN(C(=O)OC(C)(C)C)CC2)c2cc(OC)c(OC)c(OC)c2)cc1F`, the 50% inhibitory concentration (IC50) worked out at 4.87 µM in the assay with MGC-803, 2.41 µM in the assay with KYSE-450 and 8.21 µM with HCT-116.

For the compound `CCN1CCN(CC(=O)N(Cc2ccc(OC)cc2)c2cc(OC)c(OC)c(OC)c2)CC1`, the IC50 in the assay with MGC-803 was over 20 µM; with KYSE-450, 16.1 µM; in the assay with HCT-116, over 20 µM.

For `COc1ccc(CN(C(=O)CSC(=S)N2CCCc3cc(OC)ccc32)c2cc(OC)c(OC)c(OC)c2)cc1`, the IC50 in the assay with MGC-803 was 8.21 µM; in the assay with KYSE-450, 5.53 µM; in the assay on HCT-116, over 20 µM.

Turning to `COc1ccc(CN(C(=O)CSC(=S)N2CCN(C(=O)OC(C)(C)C)CC2)c2cc(OC)c(OC)c(OC)c2)cc1`, the values for the half-inhibitory concentration (IC50) in the assay on MGC-803, in the assay on KYSE-450 and with HCT-116 were 0.31 µM, 0.25 µM and 0.62 µM, respectively.

For the compound `COc1ccc(CN(C(=O)CSC(=S)N2CCc3cc(Br)ccc32)c2cc(OC)c(OC)c(OC)c2)cc1`, the IC50 is over 20 µM in the assay with MGC-803, over 20 µM in the assay on KYSE-450 and 8.06 µM in the assay with HCT-116.

As for `COc1ccc(CN(C(=O)CSC(=S)N2CCN(C(C)=O)CC2)c2cc(OC)c(OC)c(OC)c2)cc1O`, the half-inhibitory concentration (IC50) with MGC-803 was 0.31 µM; in the assay with KYSE-450, 0.21 µM; in the assay on HCT-116 it was 0.78 µM.

Turning to `COc1cc(NC(=O)CSC(=S)N2CCN(C(=O)OC(C)(C)C)CC2)c(Cc2ccccc2)c(OC)c1OC`, the 50% inhibitory concentration (IC50) in the assay on MGC-803 is over 20 µM; in the assay with KYSE-450, over 20 µM; in the assay on HCT-116, 16 µM.

For the compound `COc1ccc(CN(C(=O)CSC(=S)N2CCCC2)c2cc(OC)c(OC)c(OC)c2)cc1`, the values for the IC50 in the assay with MGC-803, with KYSE-450 and with HCT-116 were over 20 µM, 13.8 µM and 4.97 µM, respectively.

As for `COc1ccc(CN(C(=O)CSC(=S)N2CCN(C(=O)OC(C)(C)C)CC2)c2ccc(C)cc2)cc1`, the IC50 with MGC-803, in the assay on KYSE-450 and in the assay on HCT-116 was over 20 µM each time.

In the case of `COc1ccc(CN(C(=O)CSC(=S)N2CCN(C(=O)OC(C)(C)C)CC2)c2cc(OC)c(OC)c(OC)c2)cc1Br`, the IC50 with MGC-803 worked out at 3.71 µM; with KYSE-450 it was 1.85 µM; in the assay on HCT-116, 9.71 µM.

With `COc1ccc(CN(C(=O)CSC(=S)N2CCN(C(=O)OC(C)(C)C)CC2)c2cc(OC)c(OC)c(OC)c2)cc1N`, the IC50 in the assay with MGC-803 was 0.184 µM; in the assay on KYSE-450, 0.208 µM; in the assay with HCT-116 it was 0.352 µM.

Turning to `COc1ccc(CN(C(=O)CSC(=S)N2CCc3ccccc32)c2cc(OC)c(OC)c(OC)c2)cc1`, the half-maximal inhibitory concentration (IC50) was determined as 8.41 µM with MGC-803, 6.94 µM with KYSE-450 and 7.71 µM with HCT-116.

On to `COc1ccc(CN(C(=O)CSC(=S)N2CCN(C(C)=O)CC2)c2cc(OC)c(OC)c(OC)c2)cc1`, for which the IC50 in the assay on MGC-803 is 0.48 µM; in the assay with KYSE-450, 0.37 µM; with HCT-116, 1.37 µM.

On to `COc1ccc(CN(C(=O)CN2CCN(C(C)=O)CC2)c2cc(OC)c(OC)c(OC)c2)cc1`, for which the half-inhibitory concentration (IC50) with MGC-803 is 12.8 µM; with KYSE-450 it was 10.8 µM; in the assay on HCT-116, over 20 µM.

With `CCN1CCN(C(=S)SCC(=O)N(Cc2ccc(OC)c(O)c2)c2cc(OC)c(OC)c(OC)c2)CC1`, the IC50 with MGC-803 came out at 0.38 µM; in the assay on KYSE-450, 0.32 µM; with HCT-116, 0.53 µM.

`COc1ccc(CN(C(=O)CSC(=S)N2CCc3cc(OC)ccc32)c2cc(OC)c(OC)c(OC)c2)cc1`: the IC50 with MGC-803 is 11.7 µM; with KYSE-450, 10.2 µM; with HCT-116 it was 9.81 µM.

With `CCN1CCN(C(=S)SCC(=O)N(Cc2ccc(OC)cc2)c2cc(OC)c(OC)c(OC)c2)CC1`, the results for the IC50 in the assay on MGC-803, in the assay with KYSE-450 and in the assay on HCT-116 were 9.89 µM, 3.07 µM and 7.7 µM, respectively.

For the compound `COc1ccc(CN(C(=O)CSC(=S)N2CCN(C)CC2)c2cc(OC)c(OC)c(OC)c2)cc1O`, the results for the IC50 in the assay on MGC-803, with KYSE-450 and in the assay on HCT-116 were 0.86 µM, 0.76 µM and 0.81 µM, respectively.

Turning to `COc1ccc(CN(C(=O)CSC(=S)N2CCc3ccccc3C2)c2cc(OC)c(OC)c(OC)c2)cc1`, the IC50 is 5.94 µM in the assay on MGC-803, over 20 µM in the assay with KYSE-450 and 15.9 µM with HCT-116.

`COc1ccc(CN(C(=O)CN2CCOCC2)c2cc(OC)c(OC)c(OC)c2)cc1`: the figures for the IC50 in the assay on MGC-803, in the assay with KYSE-450 and in the assay with HCT-116 were 16.9 µM, 18.9 µM and over 20 µM, respectively.

Regarding `COc1ccc(CN(C(=O)CSC(=S)N2CCN(C)CC2)c2cc(OC)c(OC)c(OC)c2)cc1`, the IC50 with MGC-803 is 1.28 µM; with KYSE-450, 1.25 µM; in the assay on HCT-116, 2.64 µM.

Regarding `COc1ccc(CN(C(=O)CSC(=S)N2CCN(Cc3ccc(C(C)(C)C)cc3)CC2)c2cc(OC)c(OC)c(OC)c2)cc1`, the values for the 50% inhibitory concentration (IC50) in the assay with MGC-803, in the assay with KYSE-450 and in the assay with HCT-116 were 5.39 µM, 2.14 µM and 6.89 µM, respectively.

As for `COc1ccc(CN(C(=O)CSC(=S)N2CCN(C(=O)OC(C)(C)C)CC2)c2ccc(Br)cc2)cc1`, the IC50 with MGC-803, in the assay on KYSE-450 and in the assay on HCT-116 was over 20 µM each time.

In the case of `COc1ccc(CN(C(=O)CN2CCN(C(=O)OC(C)(C)C)CC2)c2cc(OC)c(OC)c(OC)c2)cc1`, the results for the IC50 with MGC-803, with KYSE-450 and in the assay with HCT-116 were 9.5 µM, 8.17 µM and 18.1 µM, respectively.

As to `COc1cc(N(Cc2ccc(Br)cc2)C(=O)CSC(=S)N2CCN(C(=O)OC(C)(C)C)CC2)cc(OC)c1OC`, the IC50 in the assay on MGC-803 stood at 12.4 µM; with KYSE-450, 10.7 µM; with HCT-116, 11.4 µM.
